The record followed here is patent publication US12162888B2, “Carboxamides as ubiquitin-specific protease inhibitors” (Valo Early Discovery, Inc., priority 2018, dated 2024).

A value given as a limit tells only on which side of the number the result lay.

The first test deals with T1, USP28 (His-tagged USP28-FL-mammalian) (Homo sapiens, UniProt Q96RU2).
T1 construct: Expression of USP28 (1-1077)-TEV-6*His (pTT5 vector) was carried out in Expi293f cells; made in house; host or cells: Expi293F cells (pTT5 vector)
T1 sequence (Q96RU2 1-1077): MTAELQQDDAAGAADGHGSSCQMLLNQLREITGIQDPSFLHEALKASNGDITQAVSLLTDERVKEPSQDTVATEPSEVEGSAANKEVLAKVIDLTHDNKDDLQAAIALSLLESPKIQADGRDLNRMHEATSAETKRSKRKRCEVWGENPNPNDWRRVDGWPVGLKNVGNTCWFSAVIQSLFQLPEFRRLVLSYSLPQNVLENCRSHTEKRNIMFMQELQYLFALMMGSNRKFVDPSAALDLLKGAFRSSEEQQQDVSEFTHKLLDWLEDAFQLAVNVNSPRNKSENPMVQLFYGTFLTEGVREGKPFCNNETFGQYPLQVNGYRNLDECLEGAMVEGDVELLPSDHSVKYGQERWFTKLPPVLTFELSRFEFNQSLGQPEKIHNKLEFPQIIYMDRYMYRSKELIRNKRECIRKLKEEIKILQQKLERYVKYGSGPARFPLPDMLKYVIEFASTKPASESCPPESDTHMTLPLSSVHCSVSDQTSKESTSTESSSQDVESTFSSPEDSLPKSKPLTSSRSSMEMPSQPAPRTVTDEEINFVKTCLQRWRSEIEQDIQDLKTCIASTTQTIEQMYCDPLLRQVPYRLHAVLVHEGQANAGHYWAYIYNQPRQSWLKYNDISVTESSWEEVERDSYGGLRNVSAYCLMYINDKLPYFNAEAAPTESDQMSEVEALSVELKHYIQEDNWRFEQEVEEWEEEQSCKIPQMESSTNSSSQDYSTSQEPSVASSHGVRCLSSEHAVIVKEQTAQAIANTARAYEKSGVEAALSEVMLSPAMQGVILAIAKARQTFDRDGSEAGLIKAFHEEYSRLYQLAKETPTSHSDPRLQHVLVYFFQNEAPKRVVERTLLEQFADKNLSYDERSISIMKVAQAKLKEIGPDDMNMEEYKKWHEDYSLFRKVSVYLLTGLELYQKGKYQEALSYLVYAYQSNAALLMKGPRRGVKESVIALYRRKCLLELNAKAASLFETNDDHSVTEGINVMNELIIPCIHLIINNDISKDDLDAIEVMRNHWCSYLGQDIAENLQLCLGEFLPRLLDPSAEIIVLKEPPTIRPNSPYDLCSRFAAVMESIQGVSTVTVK
As to the kind of experiment: Ubiquitin-Rhodamine 110 Assay for USP28 Activity, Example A-1(a). In kind it is biochemical. As to conditions: Ubiquitin-Rhodamine 110 biochemical assay, read-out: USP28 A-1(a) IC50 range. Put shortly: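 IC50s were fitted with a 4-parameter logistic to percent inhibition relative to no-enzyme and DMSO controls, using Rhodamine 110 fluorescence (485/535 nm) released from 25 nM Ub-Rh110. The enzyme was Expi293F-expressed USP28-FL-His at […], preincubated 30 min with compound (10-point, 25 μM top) in Tris pH 8.0 buffer containing BGG and Triton X-100. Substrate turnover ran 45 min at room temperature and was stopped with 10 mM citric acid.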
For `CO[C@H]1CCCN(c2ccc3c(n2)CC[C@H](NC(=O)c2sc4nc(C)ccc4c2N)C3)C[C@@H]1N` [Example 494, 3-amino-N-[(6S)-2-[(3S,4S)-3-amino-4-methoxyazepan-1-yl]-5,6,7,8-tetrahydroquinolin-6-yl]-6-methylthieno[2,3-b]pyridine-2-carboxamide], the IC50 is 1 to 50 nM.

Consider `Cc1ccc2c(N)c(C(=O)N[C@H]3CCc4nc(N5C[C@H](N)CC(F)(F)C5)ccc4C3)sc2n1` [Example 519, 3-amino-N-[(6S)-2-[(5R)-5-amino-3,3-difluoropiperidin-1-yl]-5,6,7,8-tetrahydroquinolin-6-yl]-6-methylthieno[2,3-b]pyridine-2-carboxamide], for which the IC50 fell in the range of 1 to 50 nM.

In the case of `CN[C@H]1CN(c2ccc3c(n2)CC[C@H](NC(=O)c2sc4nc(C)c(F)cc4c2N)C3)C[C@@H]1COC` [Example 515, 3-amino-5-fluoro-N-[(6S)-2-[(3S,4R)-3-(methoxymethyl)-4-(methylamino)pyrrolidin-1-yl]-5,6,7,8-tetrahydroquinolin-6-yl]-6-methylthieno[2,3-b]pyridine-2-carboxamide], the IC50 was 50 to 200 nM.

Staying with this test, now noted: biochemical IC50 range, Ubiquitin-Rhodamine 110 assay, read-out: USP28 A-1(a).
As to `Cc1ccc2c(N)c(C(=O)NC3COc4cc(N5CC6CCNCC65)cc(F)c4C3)sc2n1` [Example 664, 3-amino-N-[(3R)-7-[(1S,6R)-3,8-diazabicyclo[4.2.0]octan-8-yl]-5-fluoro-3,4-dihydro-2H-1-benzopyran-3-yl]-6-mcthylthicno[2,3-b]pyridinc-2-carboxamide], the IC50 was 1 to 50 nM.

For `Cc1ccc2c(N)c(C(=O)N[C@H]3COc4cc(OC[C@H]5CNC[C@@H]5C(F)(F)F)ccc4C3)sc2n1` [Example 688, 3-amino-6-methyl-N-[(3R)-7-{[(3R,4R)-4-(trifluoromethyl)pyrrolidin-3-yl]methoxy}-3,4-dihydro-2H-1-benzopyran-3-yl]thieno[2,3-b]pyridine-2-carboxamide], the IC50 is 1 to 50 nM.

For the compound `CO[C@@]12CCN[C@@H]1CN(c1ccc3c(c1)OC[C@H](NC(=O)c1sc4nc(C)ccc4c1N)C3)C2` [Example 667, N-[(3R)-7-[(3aR,6aR)-3a-methoxyoctahydropyrrolo[2,3-c]pyrrol-5-yl]-3,4-dihydro-2H-1-benzopyran-3-yl]-3-amino-6-methylthieno[2,3-b]pyridine-2-carboxamide], the IC50 is 1 to 50 nM.

As for `Cc1ccc2c(N)c(C(=O)N[C@H]3COc4nc(N5C[C@H](CF)[C@@H](N)C5)ccc4C3)sc2n1` [Example 541, 3-amino-N-[(3R)-7-[(3R,4S)-3-amino-4-(fluoromethyl)pyrrolidin-1-yl]-2H,3H,4H-pyrano[2,3-b]pyridin-3-yl]-6-methylthieno[2,3-b]pyridine-2-carboxamide], the IC50 lay within 200 to 2000 nM.

For `Cc1ccc2c(N)c(C(=O)N[C@H]3COc4cc(OC[C@H]5CNCC5(F)F)ccc4C3)sc2n1` [Example 686, 3-amino-N-[(3R)-7-{[(3R)-4,4-difluoropyrrolidin-3-yl]methoxy}-3,4-dihydro-2H-1-benzopyran-3-yl]-6-methylthieno[2,3-b]pyridine-2-carboxamide], the IC50 was in the range of 1 to 50 nM.

A further test deals with T2, USP25 (USP25-His6, Boston Biochem E-546) (Homo sapiens, UniProt Q9UHP3).
T2 construct: His6 (C); purchased Boston Biochem E-546
T2 sequence (Q9UHP3 1-1055): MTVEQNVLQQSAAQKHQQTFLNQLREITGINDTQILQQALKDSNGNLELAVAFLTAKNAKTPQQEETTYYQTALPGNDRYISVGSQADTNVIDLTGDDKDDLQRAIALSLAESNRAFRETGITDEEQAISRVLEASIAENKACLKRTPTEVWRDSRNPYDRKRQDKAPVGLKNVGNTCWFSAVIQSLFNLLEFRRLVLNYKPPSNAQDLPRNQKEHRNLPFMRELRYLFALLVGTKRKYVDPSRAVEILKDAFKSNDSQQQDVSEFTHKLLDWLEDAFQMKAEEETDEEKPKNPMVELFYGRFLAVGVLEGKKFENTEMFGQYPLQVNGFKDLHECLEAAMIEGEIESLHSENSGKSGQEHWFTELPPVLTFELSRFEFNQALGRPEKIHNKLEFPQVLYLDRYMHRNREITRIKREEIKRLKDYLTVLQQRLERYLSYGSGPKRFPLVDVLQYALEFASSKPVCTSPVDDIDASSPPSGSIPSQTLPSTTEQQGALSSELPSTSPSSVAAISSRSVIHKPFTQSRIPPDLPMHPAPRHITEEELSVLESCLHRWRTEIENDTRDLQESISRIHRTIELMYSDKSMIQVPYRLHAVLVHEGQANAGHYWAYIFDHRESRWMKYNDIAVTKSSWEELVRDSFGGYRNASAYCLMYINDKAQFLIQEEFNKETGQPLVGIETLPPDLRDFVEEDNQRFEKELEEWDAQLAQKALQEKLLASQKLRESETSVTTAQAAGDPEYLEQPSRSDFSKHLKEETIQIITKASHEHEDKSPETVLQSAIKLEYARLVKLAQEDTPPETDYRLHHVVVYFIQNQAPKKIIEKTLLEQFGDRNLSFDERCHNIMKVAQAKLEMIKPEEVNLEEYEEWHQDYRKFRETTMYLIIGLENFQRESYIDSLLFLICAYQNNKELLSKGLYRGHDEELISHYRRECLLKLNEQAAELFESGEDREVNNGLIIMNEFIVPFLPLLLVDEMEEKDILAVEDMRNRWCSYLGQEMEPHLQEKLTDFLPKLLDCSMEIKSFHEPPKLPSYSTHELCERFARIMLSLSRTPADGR
As to the kind of experiment: Ubiquitin-Rhodamine 110 Assay for USP25 Activity, Example A-3. Format: biochemical. As to conditions: Ubiquitin-Rhodamine 110 assay, Example A-3; read-out: USP25 A-3 IC50 range. As for the experimental part:
Example A-3: Biochemical Assay: Ubiquitin-Rhodamine 110 Assay for USP25 Activity
The assay was performed in a final volume of 9 μL in assay buffer containing 20 mM Tris-HCl (pH 8.0, (1M Tris-HCl, pH 8.0 solution; Corning 46-031-CM)), 3 mM BME (2-Mercaptoethanol; Sigma 63689-25ML-F), 0.03% BGG (0.22 μM filtered, Sigma, G7516-25G), and 0.01% Triton X-100 (Sigma, T9284-10L). Nanoliter quantities of 10-point, 3-fold serial dilution in DMSO was pre-dispensed into 1536 assay plates (Corning, #3724BC) for a final test concentration of 25 μM to 1.3 nM, top to lowest dose, respectively. Enzyme USP25, construct USP25-His6, (Boston Biochem E-546). Concentration and incubation times were optimized for the maximal signal-to-background while maintaining initial velocity conditions at a fixed substrate concentration. The final concentration of the enzyme in the assay was […]. Final substrate (Ub-Rh110; Ubiquitin-Rhodamine 110, R&D Systems #U-555) concentration was 25 nM with [Ub-Rh110]<<Km. 3 μL of 2× enzyme was added to assay plates (pre-stamped with compound) preincubated with […] for 30 minutes and then 3 μL of 2× Ub-Rh110 was added to assay plates. Plates were incubated for 45 minutes at room temperature before addition of 3 μL of stop solution (final concentration of 10 mM citric acid (Sigma, 251275-500G)). Fluorescence was read on the Envision (Excitation at 485 nm and Emission at 535 nm; Perkin Elmer) or on the PheraSTAR (Excitation at 485 nm and Emission at 535 nm; BMG Labtech).
For assay formats Example A-1(a), A-1(b), and A-2, data were reported as percent inhibition compared with control wells based on the following equation: % inh=1−((FLU−AveLow)/(AveHigh−AveLow)) where FLU=measured Fluorescence, AveLow=average Fluorescence of no enzyme control (n=16), and AveHighh=average Fluorescence of DMSO control (n=16). IC50 values were determined by curve fitting of the standard 4 parameter logistic fitting algorithm included in the Activity Base software package: IDBS XE Designer Model 205. Data is fitted using the Levenburg Marquardt algorithm.
On to `CC(=O)N[C@@H]1CN(c2ccc3c(n2)CC[C@H](NC(=O)c2sc4nc(C)ccc4c2N)C3)C[C@H]1C(F)F` [Example 372, 3-amino-N-[(6S)-2-[(3R,4S)-3-(difluoromethyl)-4-acetamidopyrrolidin-1-yl]-5,6,7,8-tetrahydroquinolin-6-yl]-6-methylthieno[2,3-b]pyridine-2-carboxamide], for which the IC50 was more than 2000 nM.

Turning to `COC[C@@H]1CN(c2ccc3c(n2)OC[C@H](NC(=O)c2sc4nc(C)cc(C)c4c2N)C3)C[C@@H]1N` [Example 348, 3-amino-N-[(3R)-7-[(3R,4R)-3-amino-4-(methoxymethyl)pyrrolidin-1-yl]-2H,3H,4H-pyrano[2,3-b]pyridin-3-yl]-4,6-dimethylthieno[2,3-b]pyridine-2-carboxamide], the IC50 is more than 2000 nM.

In the case of `Cc1ccc2c(N)c(C(=O)N[C@H]3CCc4nc(N5CC[C@@](N)(CO)C5)ccc4C3)sc2n1` [Example 387, 3-amino-N-[(6S)-2-[(3S)-3-amino-3-(hydroxymethyl)pyrrolidin-1-yl]-5,6,7,8-tetrahydroquinolin-6-yl]-6-methylthieno[2,3-b]pyridine-2-carboxamide], the IC50 is more than 2000 nM.

Regarding `Cc1ccc2c(N)c(C(=O)N[C@H]3CCc4nc(N5C[C@H]6COC[C@@H](C5)[C@H]6N)ccc4C3)sc2n1` [Example 396], the IC50 fell in the range of 200 to 2000 nM.
